Test results reported in patent US20080091026A1, “NOVEL CRYSTAL OF N-[[(5S)-3-[4-(2,6-DIHYDRO-2-METHYLPYRROLO[3,4-C]PYRAZOL-5(4H)-YL)-3-FLUOROPHENYL]-2-OXO-5-OXAZOLIDINYL]METHYL]ACETAMIDE” (TRANSFORM PHARMACEUTICALS, INC., priority 2006, published 2008).

What was measured:
[1] = background statement; cited from earlier work
[2] = solubility of the crystal form; type: physicochemical; details: compared to prior known forms of the API
[3] = bioavailability of the crystal form; type: in vivo; details: compared to prior known forms of the API

Row | solubility [2] | bioavailability [3] | Compound | bioavailability in humans [1]
1 |  |  | CC(=O)NC[C@H]1CN(c2ccc(N3Cc4cn(C)nc4C3)c(F)c2)C(=O)O1 [N-[[(5S)-3-[4-(2,6-dihydro-2-methylpyrrolo[3,4-c]pyrazol-5(4H)-yl)-3-fluorophenyl]-2-oxo-5-oxazolidinyl]methyl]acetamide] | poor
2 | improved | improved | CC(=O)NC[C@H]1CN(c2ccc(N3Cc4cn(C)nc4C3)c(F)c2)C(=O)O1.O=C(O)CC(=O)O [Form α crystal] | 
